Tested on: Acinetobacter baumannii strains
Experiment: Antibiotic susceptibility test (CLSI disk diffusion test method, read per CLSI 2016)
Format: cell-based
Procedure: Strain identification was performed using a kit such as AT 32 GN system (bioMérieux, Marcy l'Etoile, France). […] In Table 2 below, S, I, and R are the results obtained by evaluating susceptibility to the antibacterial agents, in which ‘S’ means susceptible, ‘I’ means intermediate, and ‘R’ means resistant.
Strain identification was performed using a kit such as ATB 32 GN system (bioMédrieux, Marcy l'Etoile, France). […] In Table 6 below, S, I, and R are the results obtained by evaluating susceptibility to the antibacterial agents, in which ‘S’ means susceptible, ‘I’ means intermediate, and ‘R’ means resistant.
Strain identification was performed using a kit such as ATB 32 GN system (bioMérieux, Marcy l'Etoile, France). […] In Table 10 below, S, I, and R are the results obtained by evaluating susceptibility to the antibacterial agents, in which ‘S’ means susceptible, T means intermediate, and ‘R’ means resistant.

NCC[C@H](O)C(=O)N[C@@H]1C[C@H](N)[C@@H](O[C@H]2O[C@H](CN)[C@@H](O)[C@H](O)[C@H]2O)[C@H](O)[C@H]1O[C@H]1O[C@H](CO)[C@@H](O)[C@H](N)[C@H]1O [Amikacin, amikacin]
antibiotic susceptibility S/I/R (host strain YMC16/01/R198): R
susceptibility category (S/I/R) (host strain YMC16/01/R198): R
antibiotic susceptibility S/I/R (host strain YMC16/01/R353): R
susceptibility category (S/I/R) (host strain YMC16/01/R353): R
antibiotic susceptibility S/I/R (host strain YMC16/01/R397): R
susceptibility category (S/I/R) (host strain YMC16/01/R397): R
antibiotic susceptibility S/I/R (host strain YMC16/01/R405): R
susceptibility category (S/I/R) (host strain YMC16/01/R405): R
antibiotic susceptibility S/I/R (host strain YMC16/03/R4461): R
susceptibility category (S/I/R) (host strain YMC16/03/R4461): R
antibiotic susceptibility S/I/R (host strain YMC16/07/R2512): R
susceptibility category (S/I/R) (host strain YMC16/07/R2512): R
antibiotic susceptibility S/I/R (host strain YMC16/09/R2471): R
susceptibility category (S/I/R) (host strain YMC16/09/R2471): R
antibiotic susceptibility S/I/R (host strain YMC16/10/R2537): R
susceptibility category (S/I/R) (host strain YMC16/10/R2537): R
antibiotic susceptibility S/I/R (host strain YMC16/12/B11422): R
susceptibility category (S/I/R) (host strain YMC16/12/B11422): R
antibiotic susceptibility S/I/R (host strain YMC16/12/B11449): R
susceptibility category (S/I/R) (host strain YMC16/12/B11449): R
antibiotic susceptibility S/I/R (host strain YMC16/12/B13325): R
susceptibility category (S/I/R) (host strain YMC16/12/B13325): R
antibiotic susceptibility S/I/R (host strain YMC16/12/P503): R
susceptibility category (S/I/R) (host strain YMC16/12/P503): R
antibiotic susceptibility S/I/R (host strain YMC16/12/R4637): R
susceptibility category (S/I/R) (host strain YMC16/12/R4637): R
antibiotic susceptibility S/I/R (host strain YMC17/01/B8053): R
susceptibility category (S/I/R) (host strain YMC17/01/B8053): R
antibiotic susceptibility S/I/R (host strain YMC17/01/B10087): R
susceptibility category (S/I/R) (host strain YMC17/01/B10087): R
antibiotic susceptibility S/I/R (host strain YMC17/01/B12075): S
susceptibility category (S/I/R) (host strain YMC17/01/B12075): S
antibiotic susceptibility S/I/R (host strain YMC17/01/B13454): R
susceptibility category (S/I/R) (host strain YMC17/01/B13454): R
antibiotic susceptibility S/I/R (host strain YMC17/01/P518): R
susceptibility category (S/I/R) (host strain YMC17/01/P518): R
antibiotic susceptibility S/I/R (host strain YMC17/01/R2812): R
susceptibility category (S/I/R) (host strain YMC17/01/R2812): R
antibiotic susceptibility S/I/R (host strain YMC17/02/B14): R
susceptibility category (S/I/R) (host strain YMC17/02/B14): R
antibiotic susceptibility S/I/R (host strain YMC17/02/B87): S
susceptibility category (S/I/R) (host strain YMC17/02/B87): S
antibiotic susceptibility S/I/R (host strain YMC17/02/B721): R
susceptibility category (S/I/R) (host strain YMC17/02/B721): R
antibiotic susceptibility S/I/R (host strain YMC17/02/B4039): R
susceptibility category (S/I/R) (host strain YMC17/02/B4039): R
antibiotic susceptibility S/I/R (host strain YMC17/02/B4520): R
susceptibility category (S/I/R) (host strain YMC17/02/B4520): R
antibiotic susceptibility S/I/R (host strain YMC17/02/B4864): S
susceptibility category (S/I/R) (host strain YMC17/02/B4864): S
antibiotic susceptibility S/I/R (host strain YMC17/02/B8414): R
susceptibility category (S/I/R) (host strain YMC17/02/B8414): R
antibiotic susceptibility S/I/R (host strain YMC17/02/P523): S
susceptibility category (S/I/R) (host strain YMC17/02/P523): S
antibiotic susceptibility S/I/R (host strain YMC17/02/R541): R
susceptibility category (S/I/R) (host strain YMC17/02/R541): R
antibiotic susceptibility S/I/R (host strain YMC17/02/R2392): R
susceptibility category (S/I/R) (host strain YMC17/02/R2392): R
antibiotic susceptibility S/I/R (host strain YMC17/03/B4730): R
susceptibility category (S/I/R) (host strain YMC17/03/B4730): R
antibiotic susceptibility S/I/R (host strain YMC17/03/B5000): R
susceptibility category (S/I/R) (host strain YMC17/03/B5000): R
antibiotic susceptibility S/I/R (host strain YMC17/03/P971): R
susceptibility category (S/I/R) (host strain YMC17/03/P971): R
antibiotic susceptibility S/I/R (host strain YMC17/03/R348): R
susceptibility category (S/I/R) (host strain YMC17/03/R348): R
antibiotic susceptibility S/I/R (host strain YMC17/03/R585): R
susceptibility category (S/I/R) (host strain YMC17/03/R585): R
antibiotic susceptibility S/I/R (host strain YMC17/03/R1888): R
susceptibility category (S/I/R) (host strain YMC17/03/R1888): R
antibiotic susceptibility S/I/R (host strain YMC17/03/R3279): R
susceptibility category (S/I/R) (host strain YMC17/03/R3279): R
antibiotic susceptibility S/I/R (host strain YMC17/03/R4077): R
susceptibility category (S/I/R) (host strain YMC17/03/R4077): R
antibiotic susceptibility S/I/R (host strain YMC17/03/R4607): R
susceptibility category (S/I/R) (host strain YMC17/03/R4607): R
antibiotic susceptibility S/I/R (host strain YMC17/04/R488): R
susceptibility category (S/I/R) (host strain YMC17/04/R488): R
antibiotic susceptibility S/I/R (host strain YMC17/04/R640): R
susceptibility category (S/I/R) (host strain YMC17/04/R640): R
antibiotic susceptibility S/I/R (host strain YMC/17/05/R1095): R
susceptibility category (S/I/R) (host strain YMC/17/05/R1095): R

From patent US20240000872A1, “NOVEL BACTERIOPHAGE THAT LYSES ACINETOBACTER GENUS BACTERIA HAVING RESISTANCE TO ANTIBIOTICS” (priority 2020, published 2024)
